Read-outs that look alike come from different tables or passages of the source.
Legend:
C57BL/6J mice [1] = experiment: Head twitch response (HTR) in mice; format: in vivo, mouse; conditions: for HTR (total events) Mean: 30 min; for ED50: Mus musculus, sc; for Duration of HTR effect in the session: peak/active doses; for Duration of HTR effect in the session / Time of peak effects on HTR post drug administration: 30 min session; for Time of peak effects on HTR post drug administration / HTR ♀ Emax (95% CI) / HTR ♂ Emax (95% CI) / HTR ♂+♀ Emax (95% CI): s.c.; for Time of peak effects on HTR post drug administration: both sexes; for HTR ♀ Emax (95% CI) / HTR ♂ Emax (95% CI): top of regression fit
Description: Each drug was tested using groups of 12 mice per sex (i.e., 24 total mice per drug). Experimental sessions were conducted once every 1–2 weeks for 2 months per drug. Experimental sessions were spaced apart by at least 1 week to minimize the potential for tolerance to drug effects (Canal and Morgan [2012]; Darmani et al. [1990a]; de la Fuente Revenga et al. [2022]). Experiments were conducted during the light phase (1300–1700 local time; lights on = 0700 in a 12/12 light/dark cycle).
At 1–2 weeks prior to the beginning of experiments, mice were habituated to handling and receiving s.c. saline injections. On the day of an experiment, mice were acclimated to the testing room in their home cage for at least 30 min prior to the start of sessions. Prior to each session, mice were weighed, and resting body temperatures were recorded. Mice were then placed into experimental chambers for acclimation. Behavioral testing was carried out in TruScan mouse locomotor arenas equipped with photobeam arrays (Coulbourn Instruments, Holliston, MA, USA) that were modified with cylindrical inserts and transparent flooring to aid in semi-automated HTR detection as previously described (Glatfelter et al. [2022a]). After 5 min of acclimation, basal body temperature was recorded followed by s.c. injection of drug or vehicle, and mice were returned to test chambers for 30 min. Dose ranges for each drug were 0.03–10 mg/kg for DOI, 0.03–10 mg/kg for psilocybin, and 0.003–1 mg/kg for LSD. Mice were randomly assigned to specific doses at the beginning of the experiment and received different doses at each session.
During each session, locomotor activity was quantified via photobeam tracking of distance traveled in cm. Overhead GoPro Hero Black 7 video recordings (120 fps, 960p resolution) were analyzed using a commercially available software package from Clever Sys Inc. (Reston, VA, USA) for the measurement of HTR activity. Mouse body temperature was also collected post-session to calculate temperature change values (basal - post session temperature reading).
Concentration-response data were fit to a single site non-linear regression model. For the HTR studies, potencies were determined from the ascending limb of the dose-response curves using ED50 potency values from [agonist] vs. response (variable slope, four parameter) least squares fit non-linear regression analyses, whereas efficacy was defined by the top output parameter or Emax from the aforementioned analyses. […] Best-fit values for ED50 and Emax from non-linear regression analyses were compared by extra sum-of-squares F tests. Mean effects for each behavioral endpoint were compared using two-way ANOVA (dose x sex), followed by Sidak’s multiple comparisons post-hoc test. Mean effects for pooled mouse behavioral data were compared via Welch’s ANOVA with Dunnett’s T3 post-hoc test, comparing all doses to saline vehicle controls (0 mg/kg). Alpha was set to 0.05 for all analyses.

C57BL/6J mice [2] = conditions: range over Table 1 and an earlier study; ref Glatfelter et al. ([2024b]); cited from earlier work
[3] = female mice, ascending limb of dose-response curve, read-out: HTR ♀ ED50 (95% CI)
[4] = male mice, ascending limb of dose-response curve, read-out: HTR ♂ ED50 (95% CI)
[5] = pooled male and female mice, read-out: HTR ♂+♀ ED50 (95% CI)

| SMILES | HTR (total events) Mean (C57BL/6J mice [1]; 0.03 mg/kg s.c., female mice) [total events] | HTR (total events) Mean (C57BL/6J mice [1]; 0.03 mg/kg s.c., male mice) [total events] | HTR (total events) Mean (C57BL/6J mice [1]; 0.03 mg/kg s.c., pooled sexes) [total events] | HTR (total events) Mean (C57BL/6J mice [1]; 0.1 mg/kg s.c., female mice) [total events] | HTR (total events) Mean (C57BL/6J mice [1]; 0.1 mg/kg s.c., male mice) [total events] | HTR (total events) Mean (C57BL/6J mice [1]; 0.1 mg/kg s.c., pooled sexes) [total events] | HTR (total events) Mean (C57BL/6J mice [1]; 0.3 mg/kg s.c., female mice) [total events] | HTR (total events) Mean (C57BL/6J mice [1]; 0.3 mg/kg s.c., male mice) [total events] | HTR (total events) Mean (C57BL/6J mice [1]; 0.3 mg/kg s.c., pooled sexes) [total events] | HTR (total events) Mean (C57BL/6J mice [1]; 1 mg/kg s.c., female mice) [total events] | HTR (total events) Mean (C57BL/6J mice [1]; 1 mg/kg s.c., male mice) [total events] | HTR (total events) Mean (C57BL/6J mice [1]; 1 mg/kg s.c., pooled sexes) [total events] | ED50 (C57BL/6J mice [1]; [3]) [mg/kg] | ED50 (C57BL/6J mice [1]; [4]) [mg/kg] | ED50 (C57BL/6J mice [1]; [5]) [mg/kg] | Duration of HTR effect in the session (C57BL/6J mice [1]) | Time of peak effects on HTR post drug administration (C57BL/6J mice [1]) [min] | HTR ♀ Emax (95% CI) (C57BL/6J mice [1]; female mice) | HTR ♂ Emax (95% CI) (C57BL/6J mice [1]; male mice) | HTR ♂+♀ Emax (95% CI) (C57BL/6J mice [1]; pooled male and female mice) | also measured |
| --- | --- | --- | --- | --- | --- | --- | --- | --- | --- | --- | --- | --- | --- | --- | --- | --- | --- | --- | --- | --- | --- |
| COc1cc(CC(C)N)c(OC)cc1I (centres unmarked) [DOI, 2,5-dimethoxy-4-iodoamphetamine] | 12.5 | 8.8 | 10.7 | 19.7 | 22.4 | 20.8 | 59.0 | 57.3 | 58.2 | 91.2 | 89.7 | 90.4 | 0.52 | 0.3 | 0.33 | lasted throughout the entire 30 min session | 5 to 10 | 131 (118–146) HTR events | 105 (93–118) HTR events | 111 (101–127) HTR events | HTR (total events) Mean (C57BL/6J mice [1]; 3 mg/kg s.c., female mice): 108.8 total events; HTR (total events) Mean (C57BL/6J mice [1]; 3 mg/kg s.c., male mice): 106.8 total events; HTR (total events) Mean (C57BL/6J mice [1]; 3 mg/kg s.c., pooled sexes): 107.8 total events; HTR (total events) Mean (C57BL/6J mice [1]; 10 mg/kg s.c., female mice): 148.7 total events; HTR (total events) Mean (C57BL/6J mice [1]; 10 mg/kg s.c., male mice): 103.3 total events; HTR (total events) Mean (C57BL/6J mice [1]; 10 mg/kg s.c., pooled sexes): 126.0 total events |
| CCN(CC)C(=O)[C@@H]1C=C2c3cccc4[nH]cc(c34)C[C@H]2N(C)C1 [LSD, lysergic acid diethylamide] | 24.2 | 29.7 | 27.2 | 43.5 | 43.7 | 43.6 | 55.8 | 45.0 | 50.4 | 38.0 | 26.2 | 32.1 | 0.051 | 0.024 | 0.035 | trended to baseline levels by the end of the testing session | 5 to 10 | 58 (50–68) HTR events | 46 (44–50) HTR events | 51 (46–60) HTR events | HTR (total events) Mean (C57BL/6J mice [1]; 0.003 mg/kg s.c., female mice): 6.5 total events; HTR (total events) Mean (C57BL/6J mice [1]; 0.003 mg/kg s.c., male mice): 6.3 total events; HTR (total events) Mean (C57BL/6J mice [1]; 0.003 mg/kg s.c., pooled sexes): 6.4 total events; HTR (total events) Mean (C57BL/6J mice [1]; 0.01 mg/kg s.c., female mice): 10.7 total events; HTR (total events) Mean (C57BL/6J mice [1]; 0.01 mg/kg s.c., male mice): 13.5 total events; HTR (total events) Mean (C57BL/6J mice [1]; 0.01 mg/kg s.c., pooled sexes): 12.1 total events; s.c. ED50 doses for inducing HTR in mice (C57BL/6J mice [2]): 0.035 to 0.039 mg/kg |
